Patent US8664203B2, “Thiazole derivatives and their use as P2Y12 receptor antagonists” (Actelion Pharmaceuticals Ltd., priority 2009, dated 2014)

Target: T1, human P2Y12 receptor (Homo sapiens, UniProt Q9H244)
T1 construct: expressed in transfected cells; host or cells: CHO cells
Assay: P2Y12 receptor binding assay
Conditions: CHO cells with recombinant expression of the human P2Y12 receptor; tritium-labeled 2-methyl-S-ADP; RT, 2 hours
Description: P2Y12 Receptor Binding Assay
Chinese Hamster Ovary (CHO) cells with recombinant expression of the human P2Y12 receptor were cultured in 24 well cell-culture plates. Cells were washed three times with binding buffer (50 mM Tris pH 7.4, 100 mM NaCl, 1 mM EDTA, 0.5% BSA). The cells were then incubated with 0.5 ml per well binding buffer containing tritium-labeled 2-methyl-thio-adenosine 5′-diphosphate (2-methyl-S-ADP) (between 100′000 and 300′000 dpm per well) and various concentrations of test compounds. After incubation at RT for 2 hours, cells were washed three times with binding buffer. Then, cells were solubilized by addition of 0.5 ml solubilization buffer (SDS, NaOH, EDTA). The content of each well was then transferred into beta-counter vials and 2.0 ml of Ultima Gold Scintillation liquid was added.

T1 sequence (Q9H244 whole entry): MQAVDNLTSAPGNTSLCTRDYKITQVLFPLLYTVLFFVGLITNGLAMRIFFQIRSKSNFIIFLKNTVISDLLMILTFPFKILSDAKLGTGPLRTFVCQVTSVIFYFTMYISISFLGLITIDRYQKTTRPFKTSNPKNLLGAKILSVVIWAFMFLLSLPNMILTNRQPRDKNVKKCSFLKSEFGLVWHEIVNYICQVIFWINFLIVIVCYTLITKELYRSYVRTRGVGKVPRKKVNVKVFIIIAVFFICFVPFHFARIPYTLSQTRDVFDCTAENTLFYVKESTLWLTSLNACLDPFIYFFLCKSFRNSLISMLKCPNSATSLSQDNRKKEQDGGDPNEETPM

Row | Compound | IC50 [nM]
1 | CCCCOC(=O)N1CCN(C(=O)[C@H](CO)NC(=O)c2nc(-c3ccccc3)sc2Br)CC1 [Example 37, 4-{(S)-2-[(5-Bromo-2-phenyl-thiazole-4-carbonyl)-amino]-3-hydroxy-propionyl}-piperazine-1-carboxylic acid butyl ester] | 696
2 | CCOC(=O)N1CCN(C(=O)[C@H](Cc2ccc(P(=O)(OCC)OCC)cc2)NC(=O)c2csc(-c3ccccc3)n2)CC1 [Example 12, 4-{(S)-3-[4-(Diethoxy-phosphoryl)-phenyl]-2-[(2-phenyl-thiazole-4-carbonyl)-amino]-propionyl}-piperazine-1-carboxylic acid ethyl ester] | 4940
3 | CCOC(=O)N1CCN(C(=O)[C@H](Cc2ccc(P(=O)(O)O)cc2)NC(=O)c2csc(-c3ccccc3)n2)CC1 [Example 13, 4-[(S)-2-[(2-Phenyl-thiazole-4-carbonyl)-amino]-3-(4-phosphono-phenyl)-propionyl]-piperazine-1-carboxylic acid ethyl ester] | 2
4 | CCCCOC(=O)N1CCN(C(=O)[C@H](CP(=O)(OCOC(=O)OCC)OCOC(=O)OCC)NC(=O)c2csc(-c3ccccc3)n2)CC1 [Example 59, 4-{(R)-3-[Bis-(ethoxycarbonyloxymethoxy)-phosphoryl]-2-[(2-phenyl-thiazole-4-carbonyl)-amino]-propionyl}-piperazine-1-carboxylic acid butyl ester] | 15
5 | CCCCOC(=O)N1CCN(C(=O)[C@H](CCC(=O)O)NC(=O)c2nc(-c3ccccc3)sc2[C@H]2C[C@@H]2COC)CC1 [Example 18, 4-((S)-4-Carboxy-2-{[5-((1S,2S)-2-methoxymethyl-cyclopropyl)-2-phenyl-thiazole-4-carbonyl]-amino}-butyryl)-piperazine-1-carboxylic acid butyl ester] | 11
6 | CCCCOC(=O)N1CCN(C(=O)[C@H](Cc2ccc(P(=O)(O)O)cc2)NC(=O)c2csc(-c3ccccc3)n2)CC1 [Example 11, 4-[(S)-2-[(2-Phenyl-thiazole-4-carbonyl)-amino]-3-(4-phosphono-phenyl)-propionyl]-piperazine-1-carboxylic acid butyl ester] | 1
7 | CCCCOC(=O)N1CCN(C(=O)[C@H](CP(=O)(OCC)OCC)NC(=O)c2nc(-c3ccccc3)sc2-c2ccccc2)CC1 [Example 42, 4-{(R)-3-(Diethoxy-phosphoryl)-2-[(2,5-diphenyl-thiazole-4-carbonyl)-amino]-propionyl}-piperazine-1-carboxylic acid butyl ester] | 2190
8 | CCCCOC(=O)N1CCN(C(=O)[C@H](CP(=O)(OCC)OCC)NC(=O)c2nc(-c3ccccc3)sc2N(C)CCCC)CC1 [Example 46, 4-[(R)-2-{[5-(Butyl-methyl-amino)-2-phenyl-thiazole-4-carbonyl]-amino}-3-(diethoxy-phosphoryl)-propionyl]-piperazine-1-carboxylic acid butyl ester] | 821
9 | CCCCOC(=O)N1CCN(C(=O)[C@H](CCC(=O)O)NC(=O)c2csc(-c3ccccc3)n2)CC1 [Example 7, 4-{(S)-4-Carboxy-2-[(2-phenyl-thiazole-4-carbonyl)-amino]-butyryl}-piperazine-1-carboxylic acid butyl ester] | 16
10 | CCCCOC(=O)N1CCN(C(=O)[C@H](CCC(=O)O)NC(=O)c2nc(-c3ccccc3)c(Br)s2)CC1 [Example 56, 4-{(S)-2-[(5-Bromo-4-phenyl-thiazole-2-carbonyl)-amino]-4-carboxy-butyryl}-piperazine-1-carboxylic acid butyl ester] | 45
11 | CCCCOC(=O)N1CCN(C(=O)[C@H](CP(=O)(N[C@@H](C)C(=O)OCC)N[C@@H](C)C(=O)OCC)NC(=O)c2csc(-c3ccccc3)n2)CC1 [Example 58, N,N′-Bis-((S)-1-Ethoxycarbonylethyl)-(R)-2-[(2-phenyl-thiazole-4-carbonyl)-amino]-3-oxo-3-(4-butoxy-carbonyl-piperazin-1-yl)-propyl-phosphonic acid diamide] | 1220
12 | CCCCOC(=O)N1CCN(C(=O)[C@H](CP(=O)(O)O)NC(=O)c2nc(-c3ccccc3)sc2N(C)CCCC)CC1 [Example 47, 4-((R)-2-{[5-(Butyl-methyl-amino)-2-phenyl-thiazole-4-carbonyl]-amino}-3-phosphono-propionyl)-piperazine-1-carboxylic acid butyl ester] | 3
13 | CCCCOC(=O)N1CCN(C(=O)[C@H](CP(=O)(OCOC(C)=O)OCOC(C)=O)NC(=O)c2csc(-c3ccccc3)n2)CC1 [Example 57, 4-{(R)-3-[Bis-(acetoxymethoxy)-phosphoryl]-2-[(2-phenyl-thiazole-4-carbonyl)-amino]-propionyl}-piperazine-1-carboxylic acid butyl ester] | 5

The next lines start with the values.

Row | IC50 [nM] | Compound
14 | 9150 | CCOC(=O)N1CCN(C(=O)CNC(=O)c2csc(-c3ccccc3)n2)CC1 [Example 1, 4-{2-[(2-Phenyl-thiazole-4-carbonyl)-amino]-acetyl}-piperazine-1-carboxylic acid ethyl ester]
15 | 43 | CCCCOC(=O)N1CCN(C(=O)[C@H](CCC(=O)O)NC(=O)c2nc(-c3ccccc3)sc2-c2ccccc2)CC1 [Example 17, 4-{(S)-4-Carboxy-2-[(2,5-diphenyl-thiazole-4-carbonyl)-amino]-butyryl}-piperazine-1-carboxylic acid butyl ester]
16 | 31 | CCCCOC(=O)N1CCN(C(=O)CNC(=O)c2nc(-c3ccccc3)sc2CCC(=O)O)CC1 [Example 33, 4-(2-{[5-(2-Carboxy-ethyl)-2-phenyl-thiazole-4-carbonyl]-amino}-acetyl)-piperazine-1-carboxylic acid butyl ester]
17 | 41 | CCCCOC(=O)N1CCN(C(=O)[C@H](CCC(=O)O)NC(=O)c2nc(-c3ccccc3)sc2Br)CC1 [Example 15, 4-{(S)-2-[(5-Bromo-2-phenyl-thiazole-4-carbonyl)-amino]-4-carboxy-butyryl}-piperazine-1-carboxylic acid butyl ester]
18 | 1160 | CCCCOC(=O)N1CCN(C(=O)CNC(=O)c2nc(-c3ccccc3)c(-c3ccccc3)s2)CC1 [Example 50, 4-{2-[(4,5-Diphenyl-thiazole-2-carbonyl)-amino]-acetyl}-piperazine-1-carboxylic acid butyl ester]
19 | 380 | CCCCOC(=O)N1CCN(C(=O)CNC(=O)c2nc(-c3ccccc3)c(/C=C/COC)s2)CC1 [Example 51, 4-(2-{[5-((E)-3-Methoxy-propenyl)-4-phenyl-thiazole-2-carbonyl]-amino}-acetyl)-piperazine-1-carboxylic acid butyl ester]
20 | 19 | CCCCOC(=O)N1CCN(C(=O)[C@H](CCC(=O)O)NC(=O)c2nc(-c3ccccc3)sc2/C=C/COC)CC1 [Example 21, 4-((S)-4-Carboxy-2-{[5-((E)-3-methoxy-propenyl)-2-phenyl-thiazole-4-carbonyl]-amino}-butyryl)-piperazine-1-carboxylic acid butyl ester]
21 | 43 | CCCCOC(=O)N1CCN(C(=O)[C@H](CO)NC(=O)c2nc(-c3ccccc3)sc2CCC(=O)O)CC1 [Example 40, 4-((S)-2-{[5-(2-Carboxy-ethyl)-2-phenyl-thiazole-4-carbonyl]-amino}-3-hydroxy-propionyl)-piperazine-1-carboxylic acid butyl ester]
